{"source": "patent US20090082303A1", "about": "“DRUG FOR PREVENTING AND TREATING ATHEROSCLEROSIS” (Takeda Pharmaceutical Company Limited, priority 2004, published 2009)", "key": {"human GM3 synthase [1]": {"system": "human GM3 synthase", "assay": "GM3 synthase inhibitor screening (1): BODIPY-lactosylceramide, HPTLC fluorescence", "type": "biochemical", "settings": "73 without CMP", "procedure": "(§1) The cell line stably expressing human GM3 synthase, which was established by transducing human GM3 synthase gene into RAW264.7 strain purchased from ATCC (Raschke W C, et al., Cell, Vol. 15, pp. 261-267, 1978) with retrovirus vector, was cultured in 10% FBS-DMEM culture medium. After culturing to confluent state, the cells were washed once with PBS and harvested. After weighing wet cells, the cells were suspended in 3 (three) volumes of buffer solution (15 mM sodium cacodilate (pH6.5), 5% glycerol). By ultrasonication, the cells were disrupted, and the supernatant, of which cell debris was excluded by centrifugation, was used as a crude enzyme solution. Protein concentration of the crude enzyme solution was determined using BCA protein assay kit(BIO RAD, Inc.).\nBODIPY-lactosylceramide (Molecular Probes, Inc.) in chloroform solution was dried in Eppendorf tube under nitrogen flow. 4× reaction buffer solution consisting of 400 mM sodium cacodylate (pH6.5), 1.6% Triton X-100, 40 mM MgCl2 and 8 mM 2,3 dehydro-2-deoxy-N-acetylneuraminic acid was added to the tube. After vortexing, it was sufficiently dissolved by ultrasonication for 20 seconds in sonicator bath and was used as a substrate solution.\nTen μl of substrate solution, 10 μl of 800 μM CMP-sialic acid, 10 μl of crude enzyme solution and 10 μl of sample were admixed and followed by incubating at 37° C. for one hour. As a sample, cytidine mono phosphate (CMP), wherein the inhibitory effect to GM3 synthase activity is reported, was used (Biochem. Biophys. Res. Commun., Vol. 193, pp. 585-590, 1993). One milliliter of chloroform/methanol mixture (2:1) was added to the reaction mixture to terminate the reaction. After mixing, ultrasonication was done for 30 minutes in sonicator bath. Supernatant was recovered by centrifugation at 15,000 rpm for 5 minutes. Pellet was further washed with 200 μl of chloroform/methanol mixture (2:1) and recovered its supernatant by centrifugation at 15,000 rpm for 5 minutes. Collected supernatant was dried under nitrogen flow, and residue was re-suspended in 50 μl of chloroform/methanol mixture (2:1). Twenty μl of the supernatant isolated by centrifugation was spotted on HPTLC (Merck, Inc.) and was developed with solvent system consisting of chloroform/methanol/0.2% CaCl2 aqueous solution (50:45:10). After development, fluorescent intensity was measured with LAS-1000 (Fuji Film, Inc.). Fluorescent intensity of both the substrate, BODIPY-lactosylceramide and the product, BODIPY-GM3 was measured, respectively to calculate a ratio of GM3 produced to lactosylceramide added. The activity was calculated as an amount of GM3 (nmol) produced/hour/mg of protein in the crude enzyme solution.\nGM3 synthase activity(nmol/mg/hr)=BODIPY-GM3(AU)/(BODIPY-lactosylceramide(AU)+BODIPY-GM3(AU))×10 nmol×1/(protein weight (mg)×reaction time(hr))\nAU means a numerical value determined with LAS-1000."}, "human GM3 synthase [2]": {"system": "human GM3 synthase", "assay": "GM3 synthase inhibitor screening (2): Phospholipid FlashPlate, CMP-[14C] sialic acid", "type": "biochemical", "settings": "without CMP = 1", "procedure": "as §1\nCoating of lactosylceramide, the substrate for GM3 synthase to Phospholipid FlashPlate (PerkinElmer, Inc.) was carried out by the method as described below. 200 μM lactosylceramide-reaction buffer solution consisting of 100 mM sodium cacodylate (pH6.5) and 10 mM MgCl2 was dispensed on the plate at 200 μl/well and followed by standing at room temperature for overnight. After washing the plate once with PBS, 30 μM lactosylceramide-reaction buffer solution was dispensed at 70 μl/well.\nTen microliter of the crude enzyme solution prepared by the procedure in EXAMPLE 4, 10 μl of CMP solution and 10 μl of 500 μM CMP-[^14C] sialic acid (Amersham; 5×10^4 cpm/well) were admixed and incubated at 37° C. for 3 (three) hours. Radioactivity was measured by Topcount (PerkinElmer, Inc.).\nA well, in which buffer solution for cell suspension was added instead of the crude enzyme was used as a blank. A value obtained by subtract the cpm value of blank well from the cpm value of sample well was used as a value for enzyme activity.\nRelative value was calculated based on the conditions without treatment of CMP as 1 (one)."}, "GM3 synthase": {"system": "GM3 synthase", "assay": "Effect of shRNA expressing retrovirus on GM3 synthase activity in RAW264.7 strain", "type": "cell-based", "settings": "crude enzyme from retrovirus-infected RAW264.7; uninfected RAW264.7 = 1", "procedure": "RAW264.7 strain purchased from ATCC (Raschke W C, et al., Cell, Vol. 15, pp. 261-267, 1978) was suspended in 10% FBS-DMEM culture medium to be 1×10^5 cells/ml, and was seeded on 12-well plate at 1 ml/well. After overnight incubation at 37° C. in the presence of 5% CO2, retrovirus, which expressed sequences for shRNA (short hairpin RNA), SHI (SEQ ID NO: 5) or SH3 (SEQ ID NO: 6), was infected to RAW264.7 strain. After overnight culture, the medium was replaced with 10% FBS-DMEM culture medium and the cells were cultured to confluent state. Using these cells, in accordance with the method in EXAMPLE 4, crude enzyme was prepared to assay GM3 synthase activity. Based on the value of the enzyme activity from RAW264.7 strain as 1 (one), the value from the virus-infected cells was calculated as relative value."}, "RAW264.7 strain": {"system": "RAW264.7 strain", "assay": "Effect of GM3 synthase knock-down on cholesterol efflux from RAW264.7 strain", "type": "cell-based", "settings": "[3H] cholesterol efflux to Apolipoprotein A1 20 μg/ml, 6 hours; uninfected RAW264.7 = 1", "procedure": "RAW264.7 strain infected with the retrovirus that expresses shRNA targeting GM3 synthase was suspended in 10% FBS-DMEM culture medium to be 1.5-2×10^6 cells/ml and was seeded on 12-well plate at 1 mL/well. After overnight culture at 37° C. in the presence of 5% CO2, the cells were washed with PBS. Then, after adding 1% FBS-DMEM culture medium, which contained [^3H] cholesterol-labeled βVLDL (final concentration: 150 μg of total cholesterol/ml), the cells were cultured for overnight. The cells were washed twice with 0.2% BSA-PBS and further washed with PBS. After replacing the medium with 0.1% BSA-DMEM culture medium, the cells were cultivated for one day. After replacing 20 μg/ml of Apolipoprotein A1 containing 0.1% BSA-DMEM culture medium, the cells were cultured for 6 hours. Cultured supernatant was collected, and radioactivity of the supernatant, from which cell debris was removed by centrifugation, was measured with the liquid scintillation counter. […] After incubation at 37° C. for overnight, radioactivity of the cell lysate was measured with the liquid scintillation counter. A ratio of the radioactivity of the culture supernatant to the summation of the radioactivity of the culture supernatant and the cell lysate was calculated. […] Based on the value from RAW264.7 strain as 1 (one), the value from the virus-infected cells was calculated as relative value."}, "mouse GM3 synthase": {"system": "mouse GM3 synthase", "assay": "Effect of IFN-γ on expression of mouse GM3 synthase in mouse peritoneal macrophage cells (TaqMan PCR)", "type": "cell-based", "settings": "24 hours, GAPDH internal standard, ΔΔCt, without IFN-γ = 1", "procedure": "In accordance with the method by Hakamada et al. [Jikken-igaku (Experimental Medicine), Supplementary Volume, Vol. 14, No. 12, “Junnkan Kenkyu Protocol (Protocol for study on circulation)”, pp. 49-52, 1996], from C57BL/6j mouse after the intraperitoneal injection of thioglycolate, peritoneal macrophage was prepared. The cells were suspended in 10% FBS-DMEM culture medium to be 1.5-2×10^6 cells/mL, and were seeded on 12-well plate at 1 mL/well. After overnight culture at 37° C. in the presence of 5% CO2, the cells were washed with PBS. The 1% FBS-DMEM culture medium containing mouse recombinant IFN-γ at prescribed concentration was added to the cells, and cultivation was performed for 24 hours.\nAfter washing the cells once with PBS, using RNeasy Mini Kit (QIAGEN) total RNA was prepared. Subsequently, using TaqMan Reverse Transcription Reagents (Applied Biosystems) cDNA was prepared. By TaqMan PCR method Using TaqMan Universal PCR Master Mix (Applied Biosystems), the expression level of GM3 synthase was quantified. As TaqMan probe and primers for mouse GM3 synthase, Assays-on-Demand (Mm00488232_ml) supplied from Applied Biosystems was used.\n(§2) In quantification, an expression level of GAPDH was used as internal standard. By ΔΔCt method, relative value was calculated based on the conditions without treatment of IFN-γ as 1 (one)."}, "human GM3 synthase [3]": {"system": "human GM3 synthase", "assay": "Effect of IFN-γ on expression of human GM3 synthase in THP-1 cells (TaqMan PCR)", "type": "cell-based", "settings": "24 hours, THP-1 macrophage-like cells, without IFN-γ = 1", "procedure": "THP-1 cells suspended in RPMI-1640 culture medium containing phorbol 12-myristeate 13-acetate (final concentration: […]), in which 10% FBS, 25 mM HEPES and Penicillin/Streptomycin were comprised, were seeded on 24-well plate at 1.0×10^6 cells/well and treated, for 3 (three) days to differentiate into macrophage-like cells. After washing the cells with PBS, RPMI-1640 culture medium containing human recombinant IFN-γ at a prescribed concentration was added to the cells. Subsequently, the cells were cultured for 24 hours.\nAs TaqMan probe and primers for human GM3 synthase, Assays-on-Demand (Hs00187405 ml) supplied from Applied Biosystems was used.\nas §2"}}}
{"molecule": "Nc1ccn([C@@H]2O[C@H](COP(=O)(O)O)[C@@H](O)[C@H]2O)c(=O)n1", "note": "[CMP, cytidine mono phosphate]", "values": [{"measurement": "GM3 synthase activity", "setting": "human GM3 synthase [1]; CMP 0.1 mM", "value": 46, "unit": "nmol/mg/h"}, {"measurement": "GM3 synthase activity", "setting": "human GM3 synthase [1]; CMP 0.3 mM", "value": 27, "unit": "nmol/mg/h"}, {"measurement": "GM3 synthase activity", "setting": "human GM3 synthase [1]; CMP 1 mM", "value": 12, "unit": "nmol/mg/h"}, {"measurement": "GM3 synthase activity", "setting": "human GM3 synthase [1]; CMP 3 mM", "value": 5, "unit": "nmol/mg/h"}, {"measurement": "GM3 synthase activity", "setting": "human GM3 synthase [1]; CMP 10 mM", "value": 7, "unit": "nmol/mg/h"}, {"measurement": "GM3 synthase activity (relative value)", "setting": "human GM3 synthase [2]; CMP 0.04 mM", "value": 1.01}, {"measurement": "GM3 synthase activity (relative value)", "setting": "human GM3 synthase [2]; CMP 0.12 mM", "value": 0.73}, {"measurement": "GM3 synthase activity (relative value)", "setting": "human GM3 synthase [2]; CMP 0.4 mM", "value": 0.58}, {"measurement": "GM3 synthase activity (relative value)", "setting": "human GM3 synthase [2]; CMP 1.2 mM", "value": 0.32}, {"measurement": "GM3 synthase activity (relative value)", "setting": "human GM3 synthase [2]; CMP 4 mM", "value": 0.28}]}
{"molecule": "SH1: retrovirus expressing shRNA (short hairpin RNA) sequence SEQ ID NO: 5 targeting GM3 synthase (GAAGACCCAGCTTGTTAATGTGTGCTGTCCATTAACAAGCTGGGTCTTCTTTTT)", "values": [{"measurement": "GM3 synthase activity (relative value)", "setting": "GM3 synthase", "value": 0.3}, {"measurement": "cholesterol transporting activity (relative value)", "setting": "RAW264.7 strain", "value": 1.3}]}
{"molecule": "SH3: retrovirus expressing shRNA (short hairpin RNA) sequence SEQ ID NO: 6 targeting GM3 synthase (GCCAATGATTTGTTCGTTAGTGTGCTGTCCTAACGAACAAATCATTGGCTTTTT)", "values": [{"measurement": "GM3 synthase activity (relative value)", "setting": "GM3 synthase", "value": 0.5}, {"measurement": "cholesterol transporting activity (relative value)", "setting": "RAW264.7 strain", "value": 1.1}]}
{"molecule": "mIFN-γ: mouse recombinant IFN-γ, known as the atherogenic cytokine", "values": [{"measurement": "Expression (mouse GM3 synthase mRNA, relative value)", "setting": "mouse GM3 synthase; mIFN-γ 1 U/mL", "value": 4}, {"measurement": "Expression (mouse GM3 synthase mRNA, relative value)", "setting": "mouse GM3 synthase; mIFN-γ 10 U/mL", "value": 25}]}
{"molecule": "hIFN-γ: human recombinant IFN-γ (protein, UniProt P01579 24-161, looked up) Interferon gamma: QDPYVKEAENLKKYFNAGHSDVADNGTLFLGILKNWKEESDRKIMQSQIVSFYFKLFKNFKDDQSIQKSVETIKEDMNVKFFNSNKKKRDDFEKLTNYSVTDLNVQRKAIHELIQVMAELSPAAKTGKRKRSQMLFRG", "values": [{"measurement": "Expression level (human GM3 synthase mRNA, relative value)", "setting": "human GM3 synthase [3]; hIFN-γ 10 ng/mL", "value": 2.6}, {"measurement": "Expression level (human GM3 synthase mRNA, relative value)", "setting": "human GM3 synthase [3]; hIFN-γ 30 ng/mL", "value": 2.4}]}
